Reference: publication PMC12717099, “Peptidoglycan recruitment by a penicillin binding protein” (Nature Communications, 2025)

Key:
Format in all cases: binding, Enterococcus faecium
PBP5:PenG complex = experiment: 1D 1H STD NMR of stem peptides with PBP5:PenG; details: for STD amplification factor: PenG-saturated PBP5, 2 s saturation
From the text: (§1) Total saturation time for STD measurements was 2 s.
(§2) Overlapped peaks were completely excluded from the analysis.

PBP5:PenG complex (1:8) = experiment: NMR CSP titration of stem peptides into PenG-saturated PBP5; details: PBP5:PenG 1:8, then SP titration
Protocol: Data was processed using Topspin 4.1.4 (Bruker) and analyzed using NMRFAM-SPARKY 1.3 and Poky (build number 20240829)[20],[21]. The sequence-specific backbone assignment of PBP5 is publicly available at BMRBID 51690.
SPs (SP1 to SP7) were titrated into 0.5 mM (^2H,^15N)-labeled and 0.1 mM (^2H,^15N)/^13C ILV labeled PBP5 at molar ratios of 0:1, 5:1, 10:1, 20:1, 40:1, 60:1, and 80:1 (stem peptide/SP:PBP5; molar ratios). 2D [^1H,^15N] TROSY or 2D [^1H,^13C] HMQC spectra were recorded for each titration point. SPs were solubilized in NMR buffer. Chemical shift perturbations (Δδ) between PBP5 and SP bound PBP5 spectra were calculated using Eq. 1,1 Δδppm=ΔδH^2+ΔδX/Y^2 where, X is ^15N or ^13C and Y is the constant i.e., 10 for ^15N and 4 for ^13C.
Residues with significant CSPs were identified by calculating the standard deviation of all CSPs (σ), then excluding any CSPs larger than average+2σ, recalculating σ as a new corrected σ0, and then repetitively removing CSPs above 2σ0 until no additional CSPs can be removed. CSPs above ≥2σ2 was the statistical threshold for ^1H/^15N backbone CSP analysis and ≥2xσ1 for ^1H/^13C methyl ILV data for the interaction of SP1 with PBP5. The same threshold values were used for all other peptides to allow for direct comparison with the SP1/PBP5 interaction. […]

PBP5 = experiment: 1D 1H STD NMR of stem peptides with PBP5; details: for STD % to SP1: normalised to highest SP1:PBP5 value; for STD amplification factor: protein:peptide 1:100, 2 s saturation, 308 K
From the text: as §1, §2

## D-Lac-L-Ala-D-iGln-L-Lys(D-iAsn)-D-Ala-D-Ala [SP1]
PBP5:PenG complex; 1H DA4α,LA1α
  STD amplification factor, ref to SP1 (fraction): 0.3134
  STD, ref to SP1 (percent): 31.3366
  STD amplification factor: 8.432
PBP5:PenG complex; 1H DA4β, DLacβ
  STD amplification factor, ref to SP1 (fraction): 0.2401
  STD, ref to SP1 (percent): 24.0089
  STD amplification factor: 6.4604
PBP5:PenG complex; 1H DA5α
  STD amplification factor, ref to SP1 (fraction): 0.5713
  STD, ref to SP1 (percent): 57.1289
  STD amplification factor: 15.3725
PBP5:PenG complex; 1H DA5β
  STD amplification factor, ref to SP1 (fraction): 0.2936
  STD, ref to SP1 (percent): 29.3585
  STD amplification factor: 7.9
PBP5:PenG complex; 1H DQ2α,Dlacα,iNα
  STD amplification factor, ref to SP1 (fraction): 0.2074
  STD, ref to SP1 (percent): 20.7354
  STD amplification factor: 5.58
PBP5:PenG complex; 1H DQ2β (first listed)
  STD amplification factor, ref to SP1 (fraction): 0.7176
  STD, ref to SP1 (percent): 71.7627
  STD amplification factor: 19.3102
PBP5:PenG complex; 1H DQ2β (second listed)
  STD amplification factor, ref to SP1 (fraction): 0.813
  STD, ref to SP1 (percent): 81.3002
  STD amplification factor: 21.8766
PBP5:PenG complex; 1H DQ2γ
  STD amplification factor, ref to SP1 (fraction): 0.3426
  STD, ref to SP1 (percent): 34.2606
  STD amplification factor: 9.219
PBP5:PenG complex; 1H K3α
  STD amplification factor, ref to SP1 (fraction): 0.4115
  STD, ref to SP1 (percent): 41.1521
  STD amplification factor: 11.0734
PBP5:PenG complex; 1H K3β
  STD amplification factor, ref to SP1 (fraction): 0.9267
  STD, ref to SP1 (percent): 92.6679
  STD amplification factor: 24.9355
PBP5:PenG complex; 1H K3δ
  STD amplification factor, ref to SP1 (fraction): 0.5468
  STD, ref to SP1 (percent): 54.6801
  STD amplification factor: 14.7135
PBP5:PenG complex; 1H K3ε
  STD amplification factor, ref to SP1 (fraction): 0.1626
  STD, ref to SP1 (percent): 16.2603
  STD amplification factor: 4.3754
PBP5:PenG complex; 1H LA1β
  STD amplification factor, ref to SP1 (fraction): 0.2447
  STD, ref to SP1 (percent): 24.4674
  STD amplification factor: 6.584
PBP5:PenG complex; 1H iNβ
  STD amplification factor, ref to SP1 (fraction): 0.3143
  STD, ref to SP1 (percent): 31.4336
  STD amplification factor: 8.458
PBP5:PenG complex (1:8)
  CSPs in presence vs absence of penicillin, in words: nearly identical
PBP5; 1H DA4α,LA1α
  STD amplification factor as fraction of highest SP1:PBP5 value: 0.3688
  STD % to SP1: 36.8831%
  STD amplification factor: 9.925
PBP5; 1H DA4β, DLacβ
  STD amplification factor as fraction of highest SP1:PBP5 value: 0.2569
  STD % to SP1: 25.6923%
  STD amplification factor: 6.913
PBP5; 1H DA5α
  STD amplification factor as fraction of highest SP1:PBP5 value: 0.6484
  STD % to SP1: 64.837%
  STD amplification factor: 17.4466
PBP5; 1H DA5β
  STD amplification factor as fraction of highest SP1:PBP5 value: 0.3281
  STD % to SP1: 32.8081%
  STD amplification factor: 8.828
PBP5; 1H DQ2α,Dlacα,iNα
  STD amplification factor as fraction of highest SP1:PBP5 value: 0.2333
  STD % to SP1: 23.3322%
  STD amplification factor: 6.278
PBP5; 1H DQ2β (first listed)
  STD amplification factor as fraction of highest SP1:PBP5 value: 0.816
  STD % to SP1: 81.5959%
  STD amplification factor: 21.9561
PBP5; 1H DQ2β (second listed)
  STD amplification factor as fraction of highest SP1:PBP5 value: 0.8819
  STD % to SP1: 88.186%
  STD amplification factor: 23.7294
PBP5; 1H DQ2γ
  STD amplification factor as fraction of highest SP1:PBP5 value: 0.3832
  STD % to SP1: 38.3191%
  STD amplification factor: 10.3111
PBP5; 1H K3α
  STD amplification factor as fraction of highest SP1:PBP5 value: 0.5115
  STD % to SP1: 51.1543%
  STD amplification factor: 13.7648
PBP5; 1H K3β
  STD amplification factor as fraction of highest SP1:PBP5 value: 1
  STD % to SP1: 100%
  STD amplification factor: 26.9084
PBP5; 1H K3δ
  STD amplification factor as fraction of highest SP1:PBP5 value: 0.7475
  STD % to SP1: 74.7509%
  STD amplification factor: 20.1143
PBP5; 1H K3ε
  STD amplification factor as fraction of highest SP1:PBP5 value: 0.2891
  STD % to SP1: 28.9129%
  STD amplification factor: 7.78
PBP5; 1H LA1β
  STD amplification factor as fraction of highest SP1:PBP5 value: 0.276
  STD % to SP1: 27.6026%
  STD amplification factor: 7.427
PBP5; 1H iNβ
  STD amplification factor as fraction of highest SP1:PBP5 value: 0.3449
  STD % to SP1: 34.4916%
  STD amplification factor: 9.281
